Source: patent US9169241B2, “Quinolinyloxyphenylsulfonamides” (Max-Planck-Gesellschaft Zur Forderung der Wissenschaften …, priority 2009, dated 2015)
Where two headings read alike, the source gives them in different places.

How the values were obtained:
indicated cell line = assay: Wound healing migration assay (Table IV); format: cell-based; settings: compounds at 12.5, 6.25, 3.125 μM, 48 h-72 h
In short: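 Cells seeded at 150000/24 well, grown to monolayer overnight, scratched with a pipette tip, then treated with compound at 12.5, 6.25 or 3.125 μM versus DMSO. Stopped by crystal violet fixation at 48-72 h once control wounds closed; IC50 taken as 50% wound size between t0 and t48 or t72.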

U118 = assay: Cell vitality assay (ATP assay, CellTiter-Glo); format: cell-based; settings: U118, 72 h; Table IIa; read-out: IC50 ATP-Assay after 72 h U118
In short: (§1)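 1000 cells/well incubated 72 h with compound at 12.5 down to 0.195 μM (twofold steps) or DMSO control. Viability measured as cellular ATP by CellTiter-Glo luminescence; IC50 taken as the concentration giving 50% of the DMSO-control ATP level.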

SF126 = assay: Cell vitality assay (ATP assay, CellTiter-Glo); format: cell-based; settings: Homo sapiens, SF-126; SF126, 72 h; Table IIa; read-out: IC50 ATP-Assay after 72 h SF126
In short: as §1

Hs578T [1] = assay: Matrigel outgrowth assay/branching assay; format: cell-based; settings: Homo sapiens, Hs-578T; HS578T cell line; Table Ib; read-out: Total branching inhibition in Matrigel HS578T
In short: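 Cells (5000/well) were seeded onto polymerized 3 mg/ml Matrigel with compound at 3.125, 1.56 or 0.78 μM, or DMSO. Imaging by inverted microscopy at 48, 72 and 96 h scored invasive branching. Only concentrations giving total branching inhibition counted as positive.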

viable cells in culture = assay: Cell viability assay at 10 μM (CellTiter-Glo, Table VII); format: cell-based; settings: compound 10 μM, 72 h;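 further: graded A 0-20%; B 21-40%; C 41-60%; D over 60% viable cells relative to DMSO control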
In short: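 Viable cell number was measured with the CellTiter-Glo Luminescent Cell Viability Assay (Promega), following the manufacturer's protocol, which quantifies ATP as a marker of metabolically active cells. In 96-well plates, 1000 cells/well in 100 μl medium were exposed to compound at 10 μM, or to DMSO control, for 72 h. Values were calculated relative to DMSO-control ATP.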

Hs578T [2] = assay: Cell vitality assay (ATP assay, CellTiter-Glo); format: cell-based; settings: Homo sapiens, Hs-578T; Hs578T, 72 h; Table IIa; read-out: IC50 ATP-Assay after 72 h Hs578T
In short: as §1

[3] = Homo sapiens, C8161 cells, read-out: IC50 Wound healing Assay C8161
[4] = SF763 cells, read-out: IC50 Wound healing Assay SF763
[5] = Homo sapiens, HCT-116, HCT116 def, read-out: percentage (%) of viable cells HCT 116def
[6] = Homo sapiens, HCT-116, HCT116 wt, read-out: percentage (%) of viable cells HCT 116wt
[7] = Homo sapiens, HT-29, HT29, read-out: percentage (%) of viable cells HT29
[8] = Homo sapiens, NCI-H358, H358, read-out: percentage (%) of viable cells H358
[9] = Homo sapiens, NCI-H1650, H1650, read-out: percentage (%) of viable cells H1650
[10] = Homo sapiens, NCI-H1666, H1666, read-out: percentage (%) of viable cells H1666
[11] = Homo sapiens, NCI-H1975, H1975, read-out: percentage (%) of viable cells H1975
[12] = Homo sapiens, NCI-H1993, H1993, read-out: percentage (%) of viable cells H1993
[13] = Homo sapiens, A549, read-out: percentage (%) of viable cells A549
[14] = Homo sapiens, HCC827, read-out: percentage (%) of viable cells HCC827
[15] = Homo sapiens, SW480, read-out: percentage (%) of viable cells SW480
[16] = RKO, read-out: percentage (%) of viable cells RKO

Row | SMILES | IC50 (indicated cell line; [3]) | IC50 (indicated cell line; [4]) | melting point | IC50 (U118) | IC50 (SF126) | IC50 (Hs578T [1]) | viability at 10 µM (viable cells in culture; [5]) | viability at 10 µM (viable cells in culture; [6]) | viability at 10 µM (viable cells in culture; [7]) | viability at 10 µM (viable cells in culture; [8]) | viability at 10 µM (viable cells in culture; [9]) | viability at 10 µM (viable cells in culture; [10]) | viability at 10 µM (viable cells in culture; [11]) | viability at 10 µM (viable cells in culture; [12]) | viability at 10 µM (viable cells in culture; [13]) | viability at 10 µM (viable cells in culture; [14]) | viability at 10 µM (viable cells in culture; [15]) | viability at 10 µM (viable cells in culture; [16]) | IC50 (Hs578T [2])
1 | COc1cc2c(Oc3ccc(NS(=O)(=O)c4ccccc4[N+](=O)[O-])cc3F)ccnc2cc1OCCCN1CCN(C)CC1 [Example 21, N-(3-Fluoro-4-{6-methoxy-7-[3-(4-methyl-piperazin-1-yl)-propoxy]-quinolin-4-yloxy}-phenyl)-2-nitro-benzenesulfonamide] | ≤ 12.5 µM | 12.5 to 50 µM | 125 to 128 °C | 12.5 to 50 µM | 12.5 to 50 µM | ≤ 10 µM | 41 to 60% | > 60% | 21 to 40% | 21 to 40% | 41 to 60% | 41 to 60% | 41 to 60% | 21 to 40% | > 60% | > 60% | 21 to 40% | 41 to 60% | 
2 | COc1cc2c(Oc3ccc(NS(=O)(=O)c4ccccc4OC(F)(F)F)cc3F)ccnc2cc1OCCCN1CCN(C)CC1 [Example 25, N-(3-Fluoro-4-{6-methoxy-7-[3-(4-methyl-piperazin-1-yl)-propoxy]-quinolin-4-yloxy}-phenyl)-2-trifluoromethoxy-benzenesulfonamide] | 12.5 to 50 µM | 12.5 to 50 µM | 86 to 90 °C | ≤ 12.5 µM | ≤ 12.5 µM | ≤ 10 µM |  |  |  |  |  |  |  |  |  |  |  |  | ≤ 12.5 µM
3 | COc1cc2c(Oc3ccc(NS(=O)(=O)c4ccccc4Cl)cc3F)ccnc2cc1OCCCN1CCN(C)CC1 [Example 29, 2-Chloro-N-(3-fluoro-4-{6-methoxy-7-[3-(4-methyl-piperazin-1-yl)-propoxy]-quinolin-4-yloxy}-phenyl)-benzenesulfonamide] | ≤ 12.5 µM | ≤ 12.5 µM | 96 to 98 °C | ≤ 12.5 µM | ≤ 12.5 µM | ≤ 10 µM | 0 to 20% | 0 to 20% | 0 to 20% | 21 to 40% | 21 to 40% | 41 to 60% | 0 to 20% | 0 to 20% | 41 to 60% | 21 to 40% | 0 to 20% | 0 to 20% | 12.5 to 50 µM
4 | COc1cc2c(Oc3ccc(NS(=O)(=O)c4c(Cl)cccc4Cl)cc3F)ccnc2cc1OCCCN1CCN(C)CC1 [Example 32, 2,6-Dichloro-N-(3-fluoro-4-{6-methoxy-7-[3-(4-methyl-piperazin-1-yl)-propoxy]-quinolin-4-yloxy}-phenyl)-benzenesulfonamide] | ≤ 12.5 µM | ≤ 12.5 µM | 113 to 116 °C | ≤ 12.5 µM | ≤ 12.5 µM | ≤ 10 µM | 21 to 40% | 0 to 20% | 0 to 20% | 0 to 20% | 21 to 40% | 41 to 60% | 21 to 40% | 0 to 20% | 41 to 60% | 41 to 60% | 21 to 40% | 21 to 40% | ≤ 12.5 µM
5 | COc1cc2c(Oc3ccc(NS(=O)(=O)c4ccccc4OC)cc3F)ccnc2cc1OCCCN1CCN(C)CC1 [Example 33, N-(3-Fluoro-4-{6-methoxy-7-[3-(4-methyl-piperazin-1-yl)-propoxy]-quinolin-4-yloxy}-phenyl)-2-methoxy-benzenesulfonamide] | ≤ 12.5 µM | 12.5 to 50 µM | 168 to 170 °C | ≤ 12.5 µM | ≤ 12.5 µM | ≤ 10 µM | 21 to 40% | 0 to 20% | 0 to 20% | 21 to 40% | > 60% | 21 to 40% | 21 to 40% | 0 to 20% | 41 to 60% | 21 to 40% | 0 to 20% | 0 to 20% | ≤ 12.5 µM

Now from value to molecule, other results behind:

Row | IC50 (indicated cell line; [3]) | IC50 (indicated cell line; [4]) | melting point | SMILES | IC50 (U118) | IC50 (SF126) | IC50 (Hs578T [1]) | viability at 10 µM (viable cells in culture; [5]) | viability at 10 µM (viable cells in culture; [6]) | viability at 10 µM (viable cells in culture; [7]) | viability at 10 µM (viable cells in culture; [8]) | viability at 10 µM (viable cells in culture; [9]) | viability at 10 µM (viable cells in culture; [10]) | viability at 10 µM (viable cells in culture; [11]) | viability at 10 µM (viable cells in culture; [12]) | viability at 10 µM (viable cells in culture; [13]) | viability at 10 µM (viable cells in culture; [14]) | viability at 10 µM (viable cells in culture; [15]) | viability at 10 µM (viable cells in culture; [16]) | IC50 (Hs578T [2])
6 | 12.5 to 50 µM | ≤ 12.5 µM |  | COc1cc2c(Oc3c(Cl)cc(NS(=O)(=O)c4c(F)cccc4F)cc3Cl)ccnc2cc1OCCCN1CCN(C)CC1 [Example 88, N-(3,5-Dichloro-4-{6-methoxy-7-[3-(4-methyl-piperazin-1-yl)-propoxy]-quinolin-4-yloxy}-phenyl)-2,6-difluoro-benzenesulfonamide] | ≤ 12.5 µM | 12.5 to 50 µM | 10 to 25 µM | 0 to 20% | 41 to 60% | 21 to 40% | 0 to 20% | 41 to 60% | 21 to 40% | 0 to 20% | 0 to 20% | 41 to 60% | 0 to 20% | 21 to 40% | 41 to 60% | ≤ 12.5 µM
7 | 12.5 to 50 µM | 12.5 to 50 µM |  | COc1cc2c(Oc3ccc(NS(=O)(=O)c4ccccc4C(F)(F)F)cc3F)ccnc2cc1OCCCNC1CCOCC1 [Example 95, N-(3-Fluoro-4-{6-methoxy-7-[3-(tetrahydro-pyran-4-ylamino)-propoxy]-quinolin-4-yloxy}-phenyl)-2-trifluoromethyl-benzenesulfonamide] | ≤ 12.5 µM | ≤ 12.5 µM | ≤ 10 µM | 21 to 40% | 21 to 40% | 0 to 20% | 0 to 20% | 21 to 40% | 21 to 40% | 0 to 20% | 0 to 20% | > 60% | 21 to 40% | 0 to 20% | 0 to 20% | 12.5 to 50 µM
